How the values were obtained:
[1] = system: Puccinia recondita f. Sp. Tritici; test: Puccinia recondita f. sp. tritici / wheat / leaf disc preventative (brown rust); format: in vivo, Puccinia recondita f. sp. tritici on wheat cv. Kanzler; conditions: foliar, 200 ppm in the applied formulation, inoculated 1 day after application, assessed 7 to 9 days after application, vs untreated control leaf disks, read-out: disease control
Protocol: Leaf disks or leaf segments of various plant species are cut from plants grown in a greenhouse. The cut leaf disks or segments are placed in multiwell plates (24-well format) onto water agar. The leaf disks are sprayed with a test solution before (preventative) or after (curative) inoculation. Compounds to be tested are prepared as DMSO solutions (max. 10 mg/ml) which are diluted to the appropriate concentration with 0.025% Tween20 just before spraying. The inoculated leaf disks or segments are incubated under defined conditions (temperature, relative humidity, light, etc.) according to the respective test system. A single evaluation of disease level is carried out 3 to 14 days after inoculation, depending on the pathosystem. Percent disease control relative to the untreated check leaf disks or segments is then calculated. Wheat leaf segments cv. Kanzler were placed on agar in multiwell plates (24-well format) and sprayed with the formulated test compound diluted in water. The leaf disks were inoculated with a spore suspension of the fungus 1 day after application. The inoculated leaf segments were incubated at 19′C and 75% relative humidity (rh) under a light regime of 12 hours light/12 hours darkness in a climate cabinet and the activity of a compound was assessed as percent disease control compared to untreated when an appropriate level of disease damage appears in untreated check leaf segments (7 to 9 days after application). The following compounds at 200 ppm in the applied formulation give at least 80% disease control in this test when compared to untreated control leaf disks under the same conditions, which show extensive disease development.

[2] = system: Puccinia recondita f. Sp. Triticil; test: Puccinia recondita f. sp. tritici / wheat / leaf disc curative (brown rust); format: in vivo, Puccinia recondita f. sp. tritici on wheat cv. Kanzler; conditions: foliar, 200 ppm in the applied formulation, applied 1 day after inoculation, assessed 6 to 8 days after application, vs untreated control leaf disks, read-out: disease control
Protocol: (§1) Leaf disks or leaf segments of various plant species are cut from plants grown in a greenhouse. The cut leaf disks or segments are placed in multiwell plates (24-well format) onto water agar. The leaf disks are sprayed with a test solution before (preventative) or after (curative) inoculation. Compounds to be tested are prepared as DMSO solutions (max. 10 mg/ml) which are diluted to the appropriate concentration with 0.025% Tween20 just before spraying. The inoculated leaf disks or segments are incubated under defined conditions (temperature, relative humidity, light, etc.) according to the respective test system. A single evaluation of disease level is carried out 3 to 14 days after inoculation, depending on the pathosystem. Percent disease control relative to the untreated check leaf disks or segments is then calculated.
Wheat leaf segments cv. Kanzler are placed on agar in multiwell plates (24-well format). The leaf segments are then inoculated with a spore suspension of the fungus. Plates were stored in darkness at 19° C. and 75% relative humidity. The formulated test compound diluted in water was applied 1 day after inoculation. The leaf segments were incubated at 19° C. and 75% relative humidity under a light regime of 12 hours light/12 hours darkness in a climate cabinet and the activity of a compound was assessed as percent disease control compared to untreated when an appropriate level of disease damage appears in untreated check leaf segments (6 to 8 days after application).
(§2) The following compounds at 200 ppm in the applied formulation give at least 80% disease control in this test when compared to untreated control leaf disks under the same conditions, which show extensive disease development.

Phakopsora pachyrhizi = Phakopsora pachyrhizi / soybean / leaf disc preventative (Asian soybean rust); format: in vivo, Phakopsora pachyrhizi on soybean; conditions: foliar, 200 ppm in the applied formulation, inoculated one day after application, assessed 12 to 14 days after application, vs untreated control leaf disks, read-out: disease control
Protocol: as §1
Soybean leaf disks are placed on water agar in multiwell plates (24-well format) and sprayed with the formulated test compound diluted in water. One day after application leaf discs are inoculated by spraying a spore suspension on the lower leaf surface. After an incubation period in a climate cabinet of 24-36 hours in darkness at 20° C. and 75% rh leaf disc are kept at 20° C. with 12 h light/day and 75% rh. The activity of a compound is assessed as percent disease control compared to untreated when an appropriate level of disease damage appears in untreated check leaf disks (12 to 14 days after application).
as §2

[3] = system: Glomerella Lacenarium (Colletotrichum lacenarium); test: Glomerella lagenarium (Colletotrichum lagenarium) liquid culture / cucumber / preventative (anthracnose); format: cell-based; conditions: 20 ppm in the applied formulation, liquid culture in PDB, 24° C., inhibition of growth measured photometrically 3 to 4 days after application, vs untreated control, read-out: disease control
Protocol: Mycelia fragments or conidia suspensions of a fungus prepared either freshly from liquid cultures of the fungus or from cryogenic storage, are directly mixed into nutrient broth. DMSO solutions of the test compound (max. 10 mg/ml) are diluted with 0.025% Tween20 by a factor of 50 and 10 μl of this solution is pipetted into a microtiter plate (96-well format). The nutrient broth containing the fungal spores/mycelia fragments is then added to give an end concentration of the tested compound. The test plates are incubated in the dark at 24° C. and 96% relative humidity. The inhibition of fungal growth is determined photometrically after 2 to 7 days, depending on the pathosystem, and percent antifungal activity relative to the untreated check is calculated.
Conidia of the fungus from cryogenic storage are directly mixed into nutrient broth (PDB—potato dextrose broth). After placing a (DMSO) solution of test compound into a microtiter plate (96-well format), the nutrient broth containing the fungal spores is added. The test plates are incubated at 24° C. and the inhibition of growth is measured photometrically 3 to 4 days after application.
The following compounds at 20 ppm in the applied formulation give at least 80% disease control in this test when compared to untreated control under the same conditions, which show extensive disease development.

O=C(CC1CCCC1)NCc1ccc(-c2noc(C(F)(F)F)n2)cc1 [Compound 1.7, 2-cyclopentyl-N-[[4-[5-(trifluoromethyl)-1,2,4-oxadiazol-3-yl]phenyl]methyl]acetamide]
≥ 80%: pest or weed control at 200 ppm [1] | pest or weed control at 200 ppm [2] | pest or weed control at 200 ppm (Phakopsora pachyrhizi) | inhibition of growth at 20 ppm [3]

O=C(NCc1ccc(-c2noc(C(F)(F)F)n2)cc1)C1CCCC1 [Compound 1.16, N-[[4-[5-(trifluoromethyl)-1,2,4-oxadiazol-3-yl]phenyl]methyl] cyclopentanecarboxamide]
≥ 80%: pest or weed control at 200 ppm [1] | pest or weed control at 200 ppm [2] | pest or weed control at 200 ppm (Phakopsora pachyrhizi) | inhibition of growth at 20 ppm [3]

CC1(C(=O)NCc2ccc(-c3noc(C(F)(F)F)n3)cc2)CCCCC1 [Compound 1.21, 1-methyl-N-[[4-[5-(trifluoromethyl)-1,2,4-oxadiazol-3-yl]phenyl]methyl] cyclohexanecarboxamide]
≥ 80%: pest or weed control at 200 ppm [1] | pest or weed control at 200 ppm [2] | pest or weed control at 200 ppm (Phakopsora pachyrhizi) | inhibition of growth at 20 ppm [3]

O=C(NCc1ccc(-c2noc(C(F)(F)F)n2)cc1)C1CCC1 [Compound 1.22, N-[[4-[5-(trifluoromethyl)-1,2,4-oxadiazol-3-yl]phenyl]methyl] cyclobutanecarboxamide]
≥ 80%: pest or weed control at 200 ppm [1] | pest or weed control at 200 ppm [2] | pest or weed control at 200 ppm (Phakopsora pachyrhizi) | inhibition of growth at 20 ppm [3]

CC1CC1C(=O)NCc1ccc(-c2noc(C(F)(F)F)n2)cc1 (centres unmarked) [Compound 1.24, 2-methyl-N-[[4-[5-(trifluoromethyl)-1,2,4-oxadiazol-3-yl]phenyl]methyl] cyclopropanecarboxamide]
≥ 80%: pest or weed control at 200 ppm [1] | pest or weed control at 200 ppm [2] | pest or weed control at 200 ppm (Phakopsora pachyrhizi) | inhibition of growth at 20 ppm [3]

CC1(C(=O)NCc2ccc(-c3noc(C(F)(F)F)n3)cc2)CC1 [Compound 1.25, 1-methyl-N-[[4-[5-(trifluoromethyl)-1,2,4-oxadiazol-3-yl]phenyl]methyl] cyclopropanecarboxamide]
≥ 80%: pest or weed control at 200 ppm [1] | pest or weed control at 200 ppm [2] | pest or weed control at 200 ppm (Phakopsora pachyrhizi) | inhibition of growth at 20 ppm [3]

CC1(C)CC1C(=O)NCc1ccc(-c2noc(C(F)(F)F)n2)cc1 (centres unmarked) [Compound 1.28, 2,2-dimethyl-N-[[4-[5-(trifluoromethyl)-1,2,4-oxadiazol-3-yl]phenyl]methyl] cyclopropanecarboxamide]
≥ 80%: pest or weed control at 200 ppm [1] | pest or weed control at 200 ppm [2] | pest or weed control at 200 ppm (Phakopsora pachyrhizi) | inhibition of growth at 20 ppm [3]

O=C(NCc1ccc(-c2noc(C(F)(F)F)n2)cc1F)C1CCCO1 (centres unmarked) [Compound 1.49, N-[[2-fluoro-4-[5-(trifluoromethyl)-1,2,4-oxadiazol-3-yl]phenyl]methyl]tetrahydrofuran-2-carboxamide]
≥ 80%: pest or weed control at 200 ppm [1] | pest or weed control at 200 ppm [2] | pest or weed control at 200 ppm (Phakopsora pachyrhizi) | inhibition of growth at 20 ppm [3]

O=C(CC1CC1)NCc1ccc(-c2noc(C(F)(F)F)n2)cc1 [Compound 1.53, 2-cyclopropyl-N-[[4-[5-(trifluoromethyl)-1,2,4-oxadiazol-3-yl]phenyl]methyl]acetamide]
≥ 80%: pest or weed control at 200 ppm [1] | pest or weed control at 200 ppm [2] | pest or weed control at 200 ppm (Phakopsora pachyrhizi) | inhibition of growth at 20 ppm [3]

CC1(C(=O)NCc2ccc(-c3noc(C(F)(F)F)n3)cc2)COC1 [Compound 1.54, 3-methyl-N-[[4-[5-(trifluoromethyl)-1,2,4-oxadiazol-3-yl]phenyl]methyl] oxetane-3-carboxamide]
≥ 80%: pest or weed control at 200 ppm [1] | pest or weed control at 200 ppm [2] | pest or weed control at 200 ppm (Phakopsora pachyrhizi) | inhibition of growth at 20 ppm [3]

O=C(NCc1ccc(-c2noc(C(F)(F)F)n2)cc1F)C1CC1(F)F (centres unmarked) [Compound 1.61, 2,2-difluoro-N-[[2-fluoro-4-[5-(trifluoromethyl)-1,2,4-oxadiazol-3-yl]phenyl]methyl] cyclopropanecarboxamide]
≥ 80%: pest or weed control at 200 ppm [1] | pest or weed control at 200 ppm [2] | pest or weed control at 200 ppm (Phakopsora pachyrhizi) | inhibition of growth at 20 ppm [3]

O=C(CC1CC1)NCc1ccc(-c2noc(C(F)(F)F)n2)cc1F [Compound 1.62, 2-cyclopropyl-N-[[2-fluoro-4-[5-(trifluoromethyl)-1,2,4-oxadiazol-3-yl]phenyl]methyl] acetamide]
≥ 80%: pest or weed control at 200 ppm [1] | pest or weed control at 200 ppm [2] | pest or weed control at 200 ppm (Phakopsora pachyrhizi) | inhibition of growth at 20 ppm [3]

CC1CC1C(=O)NCc1ccc(-c2noc(C(F)(F)F)n2)c(F)c1 (centres unmarked) [Compound 1.64, N-[[3-fluoro-4-[5-(trifluoromethyl)-1,2,4-oxadiazol-3-yl]phenyl]methyl]-2-methyl-cyclopropanecarboxamide]
≥ 80%: pest or weed control at 200 ppm [1] | pest or weed control at 200 ppm [2] | pest or weed control at 200 ppm (Phakopsora pachyrhizi) | inhibition of growth at 20 ppm [3]

CC1(C(=O)NCc2ccc(-c3noc(C(F)(F)F)n3)c(F)c2)CC1 [Compound 1.65, N-[[3-fluoro-4-[5-(trifluoromethyl)-1,2,4-oxadiazol-3-yl]phenyl]methyl]-1-methyl-cyclopropanecarboxamide]
≥ 80%: pest or weed control at 200 ppm [1] | pest or weed control at 200 ppm [2] | pest or weed control at 200 ppm (Phakopsora pachyrhizi) | inhibition of growth at 20 ppm [3]

CC1(C(=O)NCCc2ccc(-c3noc(C(F)(F)F)n3)cc2)CC1 [Compound 1.103, 1-methyl-N-[2-[4-[5-(trifluoromethyl)-1,2,4-oxadiazol-3-yl]phenyl]ethyl] cyclopropanecarboxamide]
≥ 80%: pest or weed control at 200 ppm [1] | pest or weed control at 200 ppm (Phakopsora pachyrhizi) | inhibition of growth at 20 ppm [3]

— patent US20180368410A1, “MICROBIOCIDAL OXADIAZOLE DERIVATIVES” (SYNGENTA PARTICIPATIONS AG, priority 2015, published 2018)
